Data from article PMC12636382, “Human and zebrafish mineralocorticoid receptors reporter cell assays to assess the activity of chemicals” (iScience, 2025).
Where “and” joins values, the source holds several entries; their conditions need not be identical. Equal entries are not always repeated. Where two headings read alike, the source gives them in different places.

Columns and labels:
zebrafish MR (zfMR) = zebrafish MR (zfMR) (Danio rerio, UniProt A6YIH7); test: UG5LN-GAL4-zfMR luciferase reporter cell assay (agonism and antagonism tests); assay type: cell-based; details: for EC50: agonism test, chemical alone, mean of at least three experiments, read-out: EC50
Description: (§1) The U2OS cells used to establish the MR reporter cell lines were obtained from and verified by ECACC (UK Health Security Agency, Porton Down, Salisbury, UK). The strategy used has been described previously to establish other NR-based cell lines.[42] First, the different pSG5-GAL4(DBD)-MRs (LBD) and (GAL4RE)5βGlob-Luc-SVNeo plasmids were tested by transient transfections in U2OS. Then, the UG5LN-GAL4-hMR and UG5LN-GAL4-zfMR clonal cells were generated in two steps. The first step was to establish clonal UG5LN cells by a stable transfection of U2OS cells, considered as steroid receptor negative, with the plasmid (GAL4RE)5βGlob-Luc-SVNeo. The second step consisted of the transfection of UG5LN cells with the plasmids pSG5-GAL4(DBD)-hMR(LBD)-puro, pSG5-GAL4(DBD)-hMRT870L(LBD)-puro or pSG5-GAL4(DBD)-zfMR(LBD)-puro, to generate UG5LN-GAL4-hMR, UG5LN-GAL4-hMRT870L and UG5LN-GAL4-zfMR clonal cells, respectively. Stable cell clones were selected in the presence of puromycin 0.5 μg/mL and G418 1 mg/mL. For each receptor, 5 to 10 clones were chosen for their ligand-induced luciferase expression. The clones were amplified and luciferase expression was checked at several passages. For each receptor, the clone with the best induction of luciferase activity was selected and used for the screening of the different chemicals. The stability and the inducibility of luciferase expression were checked during at least 20 passages (20 weeks).
(§2) To perform the reporter gene assay, cells were seeded in 96-wells white transparent culture plates (Greiner bio-one 655098CellStar; Dutscher, Brumath, France) at a density of 60,000 cells per well in 150 μL of culture medium and incubated at 37°C and 5% CO2 for 24 h. Then, after the attachment period, medium was removed and cells were exposed to increasing dilutions of the tested compounds in the experimental medium (DMSO; final concentration 0.1% v/v for chemicals and 0.3% v/v for water sample extracts) and incubated at 37°C and 5% CO2. After 24 h, medium was removed and replaced with 50 μL/well of experimental medium containing 0.3 mM luciferin. The luminescence signal was monitored in intact live cells for 2 s per well using a MicroBeta Wallac luminometer (PerkinElmer, Courtaboeuf, France). All experiments were performed in quadruplicate.
(§3) The quantification and statistical analysis are integral parts of the software used (GraphPad Prism 10, GraphPad Software Inc). The compounds were tested at different concentrations in at least three independent experiments. In each experiment, the compounds were tested in quadruplicate for each concentration, and the data were expressed as averages of the quadruplicates with their standard deviation to obtain a single value for that experimental series. Then, individual dose-response curves for each chemical were fitted from the averages of the three individual experiments using the sigmoidal dose-response function of the graphics and statistics software program GraphPad. Specifically, GraphPad employs nonlinear regression with the least squares method to fit the data to a sigmoidal function (based on the Hill equation). This method is used to determine the optimal parameter values, such as the Half Maximal Effective concentration (EC50) for agonist and the Half Maximal Inhibitory Concentration (IC50) for antagonist. […] Once the best-fit curve was obtained, the confidence intervals (e.g., 95% CI) for these parameters were estimated based on the uncertainty (variance) derived from the regression model, and the lower and upper 95% confidence limits of EC50s and IC50s were reported.

human MR (hMR) = biological target: T1, human MR (hMR) (Homo sapiens, UniProt P08235); test: UG5LN-GAL4-hMR luciferase reporter cell assay (agonism and antagonism tests); assay type: cell-based; details: for % min act: % of maximal luciferase activity induced by 10^−8 M aldosterone
T1 construct: hMR(LBD) (G671-K894) and zfMR(LBD) (L668-K970) have been amplified by PCR; expressed in transfected cells
T1 sequence (P08235 671-984 limits assumed): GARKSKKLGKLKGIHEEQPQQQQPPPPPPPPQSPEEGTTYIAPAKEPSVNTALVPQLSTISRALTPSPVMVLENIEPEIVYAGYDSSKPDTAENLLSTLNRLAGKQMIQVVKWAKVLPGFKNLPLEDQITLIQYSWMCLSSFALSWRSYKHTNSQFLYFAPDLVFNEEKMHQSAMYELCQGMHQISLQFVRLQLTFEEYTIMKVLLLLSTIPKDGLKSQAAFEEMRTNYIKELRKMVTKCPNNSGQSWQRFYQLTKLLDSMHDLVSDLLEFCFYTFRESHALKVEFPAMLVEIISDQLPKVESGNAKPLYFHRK
Description: as §1, §2, §3

[1] = environmental chemicals, antagonism test with aldosterone 0.5 10^−9 M, UG5LN-GAL4-zfMR, read-out: IC50
[2] = environmental chemicals at 10^−5 M, antagonism test
[3] = environmental chemicals, antagonism test with aldosterone 10^−9 M, UG5LN-GAL4-hMR, read-out: IC50
[4] = antagonism test, in presence of aldosterone 0.5 10^−9 M, UG5LN-GAL4-zfMR cells, read-out: IC50
[5] = in words, UG5LN-GAL4-zfMR cells
[6] = antagonism test, in presence of aldosterone 10^−9 M, UG5LN-GAL4-hMR cells, read-out: IC50
[7] = antagonism test with aldosterone 10^−9 M, at 10^−5, 10^−6 or 10^−7 M depending on chemical

zebrafish MR (zfMR), sequence (A6YIH7 entry or part of it): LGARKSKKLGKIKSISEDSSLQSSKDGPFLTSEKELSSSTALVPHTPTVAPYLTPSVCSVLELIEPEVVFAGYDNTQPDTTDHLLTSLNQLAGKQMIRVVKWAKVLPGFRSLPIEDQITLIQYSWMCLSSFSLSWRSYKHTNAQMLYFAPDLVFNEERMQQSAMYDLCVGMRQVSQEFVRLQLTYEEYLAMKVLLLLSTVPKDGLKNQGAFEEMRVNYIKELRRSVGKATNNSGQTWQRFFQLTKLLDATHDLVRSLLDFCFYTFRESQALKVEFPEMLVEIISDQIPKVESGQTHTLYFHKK

Compound	% min act (zebrafish MR (zfMR)) [%]	IC50 (zebrafish MR (zfMR); [1]) [µM]	% min act (human MR (hMR); [2]) [%]	IC50 (human MR (hMR); [3]) [µM]	activity profile on zfMR (agonist / partial agonist / antagonist) (zebrafish MR (zfMR); [5])	further results
C=CC(C)(O)C(=O)Nc1cc(Cl)cc(Cl)c1 (stereo not shown) [vinclozoline M2, Vinclozolin M2]	31 ± 0.5	7	28 ± 3.3	5.96	–	–
C[C@]12CCC(=O)C[C@@H]1CC[C@@H]1[C@@H]2CC[C@]2(C)[C@@H](O)CC[C@@H]12 [dihydrotestosterone]	–	–	–	–	–	activity profile on zfMR (agonist / partial agonist / antagonist) (zebrafish MR (zfMR)): full antagonists; IC50 (zebrafish MR (zfMR); IC50): 0.035 µM and 0.0349 µM; activity profile on hMR (agonist / partial agonist / antagonist) (human MR (hMR)): full antagonists; IC50 (human MR (hMR); IC50): 0.06 µM
ClC1=C(Cl)[C@]2(Cl)[C@H]3[C@H]([C@H](Cl)C(Cl)[C@@H]3Cl)[C@@]1(Cl)C2(Cl)Cl (stereo partly shown) [transnonachlore]	57.8 ± 9	–	10 ± 0.9	0.61	–	–
O=S1OCC2C(CO1)C1(Cl)C(Cl)=C(Cl)C2(Cl)C1(Cl)Cl (stereo not shown) [endosulfan]	–	8.4	–	1.01	–	–
Bisphenol C	–	11.8	51 ± 6	13.2	–	–
CCC(=O)[C@@]1(C)CC[C@H]2[C@@H]3CCC4=CC(=O)CCC4=C3CC[C@@]21C [promegestone]	–	–	–	–	full antagonists	IC50 (zebrafish MR (zfMR); [4]): 0.291 µM; IC50 (human MR (hMR); [6]): 0.169 µM; activity profile on hMR (agonist / partial agonist / antagonist) (human MR (hMR); in words, UG5LN-GAL4-hMR cells): full antagonists
ClC1=C(Cl)C2(Cl)C3C4C=CC(C4)C3C1(Cl)C2(Cl)Cl (stereo not shown) [aldrin]	–	2.17	–	0.39	–	–
CC(=O)[C@H]1CC[C@H]2[C@@H]3CC=C4C[C@@H](O)CC[C@]4(C)[C@H]3CC[C@]12C [pregnenolone]	4.1 ± 0.2	–	–	–	full antagonists	IC50 (zebrafish MR (zfMR); [4]): 0.166 µM; % min act (human MR (hMR); [7]): 6.0 ± 1%; IC50 (human MR (hMR); [6]): 0.068 µM and 0.0677 µM; activity profile on hMR (agonist / partial agonist / antagonist) (human MR (hMR); in words, UG5LN-GAL4-hMR cells): full antagonists
C[C@]12CCC(=O)C=C1C=C[C@@H]1[C@@H]2CC[C@@]2(C)[C@H]1CC[C@@]21CCC(=O)O1 [canrenone]	–	–	–	–	full antagonists	IC50 (zebrafish MR (zfMR); [4]): 0.018 µM and 0.0184 µM; IC50 (human MR (hMR); [6]): 0.017 µM and 0.0167 µM; activity profile on hMR (agonist / partial agonist / antagonist) (human MR (hMR); in words, UG5LN-GAL4-hMR cells): full antagonists
Oc1ccc(C(c2ccc(O)cc2)C(Cl)(Cl)Cl)cc1 [HPTE]	51 ± 6.8	11.1	12.3 ± 1.5	2.06	–	–
dihydroprogesterone	5 ± 0.5	–	–	–	full antagonists	IC50 (zebrafish MR (zfMR); [4]): 0.186 µM; % min act (human MR (hMR); [7]): 11 ± 2%; IC50 (human MR (hMR); [6]): 0.395 µM; activity profile on hMR (agonist / partial agonist / antagonist) (human MR (hMR); in words, UG5LN-GAL4-hMR cells): full antagonists
O=C1C2(Cl)C3(Cl)C4(Cl)C(Cl)(Cl)C5(Cl)C3(Cl)C1(Cl)C5(Cl)C24Cl (stereo not shown) [chlordecone]	28.6 ± 0.3	5.59	8.4 ± 1	1.21	–	–
CC#C[C@]1(O)CC[C@H]2[C@@H]3CCC4=CC(=O)CCC4=C3[C@@H](c3ccc(N(C)C)cc3)C[C@@]21C [mifepristone]	–	–	–	–	full antagonists	IC50 (zebrafish MR (zfMR); [4]): 1.05 µM; activity profile on hMR (agonist / partial agonist / antagonist) (human MR (hMR); in words, UG5LN-GAL4-hMR cells): full antagonists
CC(C)(C)CC(C)(C)c1ccc(O)cc1 [4-tert-octylphenol]	–	15.8	–	2.12	–	–
ClC(Cl)=C(c1ccc(Cl)cc1)c1ccccc1Cl [2,4′-DDE, 2,4′DDE]	34.8 ± 6.6	6.9	8.3 ± 1.2	0.47	–	–
17α-hydroxyprogesterone [17α-hydroxy progesterone]	–	–	–	–	full agonists	% max act (zebrafish MR (zfMR)): 97.6 ± 1.2%; EC50 (zebrafish MR (zfMR); UG5LN-GAL4-zfMR cells, listed as 17-α-hydroxy progesterone): 0.00024 µM; EC50 (zebrafish MR (zfMR); UG5LN-GAL4-zfMR cells, listed as 17α-hydroxyprogesterone): 0.0002 µM
CCCOCCN(C(=O)CCl)c1c(CC)cccc1CC [pretilachlore]	21 ± 0.7	4.71	21.5 ± 1.7	3.51	–	–
Nonylphenol mixture	40.7 ± 4.8	9.2	12 ± 2.5	1.56	–	–
CC(=O)[C@H]1CC[C@H]2[C@@H]3CCC4=CC(=O)CC[C@]4(C)[C@H]3CC[C@]12C [progesterone]	–	–	–	–	partially activate	–
C[C@]12CCC(=O)C=C1CC[C@@H]1[C@@H]2CC[C@@]2(C)[C@H]1CC[C@]2(O)C(=O)CO [11-deoxycortisol]	–	–	–	–	partially activate	EC50 (zebrafish MR (zfMR); UG5LN-GAL4-zfMR cells): 0.00073 µM; REP (relative potency) (zebrafish MR (zfMR); ratio of EC50 values aldosterone/chemical, aldosterone set at 1): 0.41; IC50 (human MR (hMR); [6]): 0.0044 µM and 0.00441 µM; activity profile on hMR (agonist / partial agonist / antagonist) (human MR (hMR); in words, UG5LN-GAL4-hMR cells): complete antagonists
CC(C)(c1ccc(O)cc1)c1ccc(O)c(Cl)c1 [2-chloro-bisphenol A]	–	4.3	12 ± 8.7	1.36	–	% min act (zebrafish MR (zfMR); environmental chemicals at 10^−5 M, antagonism test, % of maximal luciferase activity induced by 10^−8 M aldosterone): 13.2 ± 1.3%
CC(C)(c1ccc(O)cc1)c1ccc(O)cc1 [bisphenol A, Bisphenol A]	–	5.15	–	2.28	–	–
